Assay: Stability of the antimicrobial agent to melting during processing (activity retained)
Type: physicochemical
Description: Bundles of the dosed and non-dosed fibres were melted at 170° C. and compressed, to manufacture a number of continuous, smooth, 2 mm thick plastic sheets. The sheets were cut to create 50×50 mm area test pieces, as required by the standard test for Anti Microbial Activity ISO 22196:2007. This test is an appropriate method for assessing the surface antimicrobial activity of plastic materials when micro-organisms are placed onto the test piece.
3-(trihydroxysilyl)propyldimethyl octodecyl ammonium chloride was combined with polypropylene stock at a dosing rate of around 1% by total weight and the mixture melted, before extruding it into fibres. Control fibres were produced by a method identical other than omission of the 3-(trihydroxysilyl)propyldimethyl octodecyl ammonium chloride. The fibres were 0.45 mm with an X shape cross section and 100 mm long.

CCCCCCCCCCCCCCCCCC[N+](C)(C)CCC[Si](O)(O)O.[Cl-] [antimicrobial agent, 3-(trihydroxysilyl)propyldimethyl octodecyl ammonium chloride]
stability to re-melting of the fibres when making the test pieces (fibres melted at 170° C. and compressed): sufficiently stable | stability after melting when making the fibres (melting to 200° C.): sufficiently stable
